What was measured:
Experiment in all cases: relative viability (nuclei count vs DMSO), 5 days (fraction); higher = more cells survive
R406 + Dasatinib = compound: COc1cc(Nc2ncc(F)c(Nc3ccc4c(n3)NC(=O)C(C)(C)O4)n2)cc(OC)c1OC [R406] + Cc1nc(Nc2ncc(C(=O)Nc3c(C)cccc3Cl)s2)cc(N2CCN(CCO)CC2)n1 [Dasatinib] (partner 0.075 µM)
Procedure, shortened: (§1)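 Lung cancer cell lines, seeded in 1536-well plates, were treated the following day by pin tool with a single drug or with five library-drug doses (not always all listed) in √10 steps on top of a fixed anchor-drug dose. Cells were fixed and nuclei stained in one step after 5 days, and nuclei were counted. Relative viability is the nuclei count for treated wells divided by that for vehicle wells, reported as medians of duplicate plates.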

R406 + Linsitinib = compound: COc1cc(Nc2ncc(F)c(Nc3ccc4c(n3)NC(=O)C(C)(C)O4)n2)cc(OC)c1OC [R406] + C[C@]1(O)C[C@@H](c2nc(-c3ccc4ccc(-c5ccccc5)nc4c3)c3c(N)nccn32)C1 [Linsitinib] (partner 1 µM)
Procedure, shortened: as §1

R406 + Pemetrexed = compound: COc1cc(Nc2ncc(F)c(Nc3ccc4c(n3)NC(=O)C(C)(C)O4)n2)cc(OC)c1OC [R406] + Nc1nc2[nH]cc(CCc3ccc(C(=O)N[C@@H](CCC(=O)O)C(=O)O)cc3)c2c(=O)[nH]1 [Pemetrexed] (partner 0.2 µM)
Procedure, shortened: as §1

Daporinad + Lapatinib = compound: O=C(/C=C/c1cccnc1)NCCCCC1CCN(C(=O)c2ccccc2)CC1 [Daporinad] + CS(=O)(=O)CCNCc1ccc(-c2ccc3ncnc(Nc4ccc(OCc5cccc(F)c5)c(Cl)c4)c3c2)o1 [Lapatinib] (partner 2 µM)
Procedure, shortened: as §1

Row | Cell Line | relative viability (R406 + Dasatinib; first compound 0.08 µM) | relative viability (R406 + Dasatinib; first compound 0.253 µM) | relative viability (R406 + Dasatinib; first compound 0.8 µM) | relative viability (R406 + Dasatinib; first compound 2.53 µM) | relative viability (R406 + Dasatinib; first compound 8 µM) | relative viability (R406 + Linsitinib; first compound 0.08 µM) | relative viability (R406 + Linsitinib; first compound 0.253 µM) | relative viability (R406 + Linsitinib; first compound 0.8 µM) | relative viability (R406 + Linsitinib; first compound 2.53 µM) | relative viability (R406 + Linsitinib; first compound 8 µM) | relative viability (R406 + Pemetrexed; first compound 0.08 µM) | relative viability (R406 + Pemetrexed; first compound 0.253 µM) | relative viability (R406 + Pemetrexed; first compound 0.8 µM) | relative viability (R406 + Pemetrexed; first compound 2.53 µM) | relative viability (R406 + Pemetrexed; first compound 8 µM) | relative viability (Daporinad + Lapatinib; first compound 0.0005 µM) | relative viability (Daporinad + Lapatinib; first compound 0.001581 µM) | relative viability (Daporinad + Lapatinib; first compound 0.005 µM) | relative viability (Daporinad + Lapatinib; first compound 0.01581 µM)
1 | NCI-H2085 | 0.249 | 0.283 | 0.251 | 0.222 | 0.179 | 0.899 | 1.08 | 0.825 | 0.971 | 0.707 | 0.89 | 0.902 | 0.867 | 0.64 | 0.589 | 0.739 | 0.741 | 0.871 | 0.855
2 | NCI-H2087 | 0.782 | 0.903 | 1.15 |  | 0.481 | 1.29 | 1.04 | 0.914 | 1.03 | 0.709 | 0.712 | 0.733 | 0.683 | 0.746 | 0.679 | 0.99 | 0.979 | 1.18 | 1.14
3 | NCI-H2126 | 0.6 | 0.619 | 0.596 | 0.496 | 0.243 | 0.683 | 0.783 | 0.753 | 0.657 | 0.625 | 0.749 | 0.664 | 0.722 | 0.599 | 0.61 | 0.799 | 0.677 | 0.752 | 0.82
4 | NCI-H2228 | 0.442 | 0.695 | 0.646 | 0.195 | 0.135 | 0.729 | 0.813 | 0.889 | 0.273 | 0.154 | 0.316 | 0.332 | 0.352 | 0.255 | 0.0888 | 1.14 | 1.75 | 1.52 | 1.12
5 | NCI-H2347 | 0.322 | 0.339 | 0.324 | 0.319 | 0.299 | 0.928 | 1.01 | 1.06 | 0.848 | 0.71 | 0.402 | 0.398 | 0.433 | 0.395 | 0.387 | 1.14 | 0.781 | 1.06 | 1.05
6 | NCI-H2405 | 0.19 | 0.226 | 0.224 | 0.198 | 0.142 | 0.916 | 0.89 | 1.01 | 0.731 | 0.221 | 1.14 | 1.22 | 1.08 | 0.495 | 0.224 | 1.1 | 1.25 | 1.12 | 0.444
7 | NCI-H3122 | 0.743 | 0.844 | 0.832 |  | 0.491 | 0.976 | 0.921 | 0.982 | 1.01 | 0.98 | 0.198 | 0.202 | 0.189 | 0.194 | 0.17 | 1.01 | 1.12 | 1.01 | 1.02
8 | PC-3 [JPC-3] | 0.951 | 1.09 | 1.27 | 0.915 | 0.737 | 0.981 | 0.977 | 1.01 | 1 | 0.791 | 1.08 | 1.25 | 1.25 | 0.882 | 0.455 | 0.433 | 0.459 | 0.437 | 0.455
9 | PC-14 | 0.271 | 0.241 | 0.283 | 0.105 | 0.0312 | 0.941 | 1.05 | 1.01 | 0.852 | 0.8 | 0.139 | 0.131 | 0.135 | 0.101 | 0.042 | 0.271 | 0.383 | 0.31 | 0.393
10 | RERF-LC-KJ | 0.782 | 0.878 | 0.939 | 0.678 | 0.503 | 0.848 | 0.846 | 1.03 | 0.657 | 0.695 | 0.457 | 0.487 | 0.473 | 0.458 | 0.381 | 0.682 | 0.803 | 0.799 | 0.888
11 | SK-LU-1 | 0.164 | 0.174 | 0.186 | 0.0685 | 0.0703 | 1.03 | 1.07 | 1.07 | 0.595 | 0.292 | 0.952 | 1.06 | 1.1 | 0.528 | 0.187 | 0.889 | 0.907 | 1.09 | 0.969
12 | SK-MES-1 | 0.397 | 0.371 | 0.363 | 0.137 | 0.136 | 1.04 | 1.13 | 1.1 | 0.569 | 0.488 | 0.948 | 0.942 | 1.01 | 0.538 | 0.213 | 0.464 | 0.484 | 0.51 | 0.471
13 | SW 1573 | 0.492 | 0.539 | 0.602 | 0.366 | 0.149 | 0.926 | 0.864 | 0.812 | 0.664 | 0.627 | 0.815 | 0.898 | 0.903 | 0.601 | 0.324 | 1.12 | 0.322 | 1.2 | 0.833
14 | UMC-11 | 0.466 | 0.572 | 0.519 | 0.459 | 0.342 | 1.1 | 1.1 | 1.16 | 0.935 | 0.474 | 0.764 | 0.808 | 0.889 | 0.609 | 0.304 | 0.995 | 1.06 | 1.08 | 1.24

Reference: the supplement of paper PMC10307832
